From patent EP0425235B1, “Cytotoxic agents comprising maytansinoids and their therapeutic use” (IMMUNOGEN INC, priority 1989, dated 1991)
Like-named read-outs stand apart in the source and are kept apart here.

Columns and labels:
[1] = system: SW620 (Colon adenocarcinoma); experiment: In vitro cytotoxicity, clonogenic assay; format: cell-based, human; settings: for IC50: Homo sapiens, read-out: IC50(24hr.exposure)
Experimental: (§1) Cells of the human promyelocytic leukemia cell line, HL-60 (ATCC CCL 240) and the Burkitt's lymphoma cell line Namalwa (ATCC CRL 1432) were grown as suspension cultures in RPMI-1640 medium supplemented with 10% fetal calf serum and 2 mM L-glutamine. All other cell lines described below were grown as adherent cultures. Human epidermoid carcinoma cell line, KB (ATCC CCL 17), human renal carcinoma cell line A498 (ATCC HTB 44), human colon adenocarcinoma cell lines SW620 (ATCC CCL 227) and HT-29 (ATCC HTB 38) were grown in RPMI-1640 medium supplemented with 10% fetal calf serum and 2 mM L-glutamine. Human breast carcinoma SKBR3 cells (ATCC HTB 30) were grown in DMEM supplemented with 15% fetal calf serum containing 2 mM glutamine and the human ovarian adenocarcinoma cell line OVCAR3 (ATCC HTB 161) was grown in RPMI-1640 medium supplemented with 10% fetal calf serum containing 10 µg/ml insulin and 2 mM L-glutamine.
(§2) Cytotoxicity assays were performed in the respective media described above. The cytotoxicity of the maytansinoids and their antibody conjugates to HL-60 and Namalwa cells was measured by back-extrapolation of cell proliferation curves. Cytotoxicity of these compounds to the rest of the cell lines was determined using a clonogenic assay as previously described.

A498 (Renal carcinoma) = experiment: In vitro cytotoxicity, clonogenic assay; format: cell-based, human; settings: for IC50: Homo sapiens, A498, 24hr exposure
Experimental: (§3) Since the methyldithio-maytansinoids are even more toxic than maytansine to solid tumor cell lines like KB and SKBR3, a wider panel of solid tumor cell lines was tested in a manner analogous to that described above to see whether this was a general phenomenon.
as §1, §2

[2] = system: HL60(Promyelocytic leukemia); experiment: In vitro cytotoxicity, back-extrapolation of cell proliferation curves; format: cell-based; settings: Homo sapiens, HL-60; HL60, 24hr exposure
Experimental: as §3
as §1, with “Human breast carcinoma SKBR3 cells (ATCC HTB 30) were grown in DMEM supplemented with 15% fetal calf serum containing 2 mM glutamine and the human ovarian adenocarcinoma cell line OVCAR3 (ATCC HTB 161) was grown in RPMI-1640 medium supplemented with 10% fetal calf serum containing 10 µg/ml insulin and 2 mM L-glutamine.” left out
as §2

L1210 cells = L1210 cells in vitro; cited from earlier work
[3] = system: human acute lymphoblastic leukemia line C.E.M.; settings: cited from earlier work
[4] = system: Ovcar3 (Ovarian carcinoma); experiment: In vitro cytotoxicity, clonogenic assay; settings: for IC50: Homo sapiens, OVCAR-3, 24 h, read-out: IC50(24hr.exposure)
Experimental: as §1, §2

[5] = system: P388, L1210, and LY5178 murine leukemic cell suspensions; settings: P388, L1210 and LY5178, P388 most sensitive; cited from earlier work
[6] = system: SKBR3 (human breast tumor); experiment: In vitro cytotoxicity, clonogenic assay (plating efficiency); format: cell-based
Excerpt: (§4) Cytotoxicity of the maytansinoids and their antibody conjugates to non-adherent cell lines such as Namalwa and HL-60 can be measured by back-extrapolation of cell proliferation curves as described in Goldmacher et al, 135 J. Immunol. 3648-3651 (1985). Cytotoxicity of these compounds to adherent cell lines such as SKBR3 and KB can be determined by clonogenic assays as described in Goldmacher et al, 102 J. Cell Biol. 1312-1319 (1986).
The disulfide-containing maytansinoid drugs of the invention were evaluated for their ability to suppress proliferation of various human tumor cell lines in vitro. Two adherent cell lines KB (human epidermoid carcinoma) and SKBR3 (human breast tumor) and the non-adherent cell line, Namalwa (Burkitt's lymphoma) were used for the assessment of cytotoxicity of these compounds. […]
as §1, §2

[7] = system: KB (human epidermoid carcinoma); experiment: as above; format: cell-based; settings: for fold more toxic than maytansine: KB and SKBR3 cells, ratio of IC50 values; for times less toxic than L counterpart: D-aminoacyl isomer vs L counterpart (6c, 6e), all three cell lines (KB, SKBR3, Namalwa)
Excerpt: as §4
(§5) The disulfide-containing maytansinoid drugs of the invention were evaluated for their ability to suppress proliferation of various human tumor cell lines in vitro. Two adherent cell lines KB (human epidermoid carcinoma) and SKBR3 (human breast tumor) and the non-adherent cell line, Namalwa (Burkitt's lymphoma) were used for the assessment of cytotoxicity of these compounds. Cells were exposed to the compounds for 24 hours and the surviving fractions of cells were measured in direct assays.
as §1, §2

[8] = system: Namalwa (Burkitt's lymphoma); experiment: In vitro cytotoxicity, growth back-extrapolation; format: cell-based, human
Excerpt: as §4, §5, §1, §2

[9] = system: P388 lymphocytic leukemia system; settings: cited from earlier work
[10] = Homo sapiens, 24 h, NAMALWA, 24 hour exposure, read-out: IC50
[11] = Homo sapiens, 24 h, Namalwa, 24hr exposure (Table 2), read-out: IC50(24hr.exposure)
[12] = Homo sapiens, SK-BR-3, 24 h, SKBR3, 24 hour exposure
[13] = Homo sapiens, 24 h, KB, 24 hour exposure

COc1cc2cc(c1Cl)N(C)C(=O)C[C@H](OC(=O)[C@H](C)N(C)C(C)=O)[C@]1(C)O[C@H]1[C@H](C)[C@@H]1C[C@@](O)(NC(=O)O1)[C@H](OC)/C=C/C=C(\C)C2 [Compound 1a, maytansine, reference compound]
IC50 ([1]; SW-620, SW620, 24hr exposure): > 0.1 nM | surviving fraction ([1]; SW620, at 1x10^-10 M): 100% | surviving fraction (A498 (Renal carcinoma); A498, at 1x10^-10 M): 100% | IC50 (A498 (Renal carcinoma)): > 0.1 nM | IC50 [2]: 0.5 nM | cells accumulating in mitosis (L1210 cells): 67% | inhibited by concentrations as low as [3]: 10^-7 microgram/ml | IC50 [4]: 0.1 nM | inhibited at doses of [5]: 10^-3 to 10^-7 microgram/ml | IC50 ([6]; Homo sapiens, SK-BR-3, 24 h, SKBR3, 24 hour exposure, read-out: IC50): 0.1 nM | IC50 ([6]; Homo sapiens, SK-BR-3, 24 h, SKBR3, 24hr exposure (Table 2), read-out: IC50(24hr.exposure)): 0.11 nM | IC50 ([7]; Homo sapiens, 24 h, KB, 24 hour exposure, read-out: IC50): 0.03 nM | IC50 ([7]; Homo sapiens, 24 h, KB, 24hr exposure (Table 2), read-out: IC50(24hr.exposure)): 0.034 nM | IC50 [8, 10]: 0.4 nM | IC50 [8, 11]: 0.4 nM | dosage range over which tumor growth was inhibited [9]: 50- to 100 fold

COc1cc2cc(c1Cl)N(C)C(=O)C[C@H](OC(=O)[C@H](C)N(C)C(=O)CCSSC)[C@]1(C)O[C@H]1[C@H](C)[C@@H]1C[C@@](O)(NC(=O)O1)[C@H](OC)/C=C/C=C(\C)C2 [Compound 6b]
IC50 ([1]; SW-620, 24 h): 0.04 nM | IC50 (A498 (Renal carcinoma)): 0.1 nM | IC50 [2]: 0.8 nM | IC50 [4]: 0.05 nM | cytotoxicity relative to maytansine ([4]; OVCAR3): twice as cytotoxic | IC50 [6, 12]: ≤ 0.01 nM | IC50 ([6]; SKBR3, 24 hour exposure): 0.011 nM | IC50 ([6]; SKBR3, 72hr exposure): 1x10^-13 Molar | IC50 [7, 13]: ≤ 0.01 nM | IC50 ([7]; Homo sapiens, 24 h, read-out: IC50(24hr.exposure), KB, 24hr exposure (Table 2)): 0.011 nM | fold more toxic than maytansine [7]: 3-10 fold | IC50 [8, 11]: 6 nM

COc1cc2cc(c1Cl)N(C)C(=O)C[C@H](OC(=O)[C@H](C)N(C)C(=O)CCCSSC)[C@]1(C)O[C@H]1[C@H](C)[C@@H]1C[C@@](O)(NC(=O)O1)[C@H](OC)/C=C/C=C(\C)C2 [Compound 6c]
IC50 [7, 13]: ≤ 0.01 nM | fold more toxic than maytansine [7]: 3-10 fold | IC50 ([7]; KB, 24 hour exposure): 0.0085 nM | IC50 [8, 10]: ≥ 3 nM | IC50 ([8]; NAMALWA, 24 hour exposure, read-out: IC50): 3.2 nM

COc1cc2cc(c1Cl)N(C)C(=O)C[C@H](OC(=O)[C@@H](C)N(C)C(=O)CCCSSC)[C@]1(C)O[C@H]1[C@H](C)[C@@H]1C[C@@](O)(NC(=O)O1)[C@H](OC)/C=C/C=C(\C)C2 [Compound 6d]
times less toxic than L counterpart [7]: ≥ 20 times | IC50 [7, 13]: 0.19 nM | IC50 [8, 10]: 13 nM

COc1cc2cc(c1Cl)N(C)C(=O)C[C@H](OC(=O)[C@H](C)N(C)C(=O)CCSSc1ccccc1)[C@]1(C)O[C@H]1[C@H](C)[C@@H]1C[C@@](O)(NC(=O)O1)[C@H](OC)/C=C/C=C(\C)C2 [Compound 6e]
IC50 [7, 13]: 0.1 nM | IC50 [8, 10]: 0.6 nM

COc1cc2cc(c1Cl)N(C)C(=O)C[C@H](OC(=O)[C@@H](C)N(C)C(=O)CCSSc1ccccc1)[C@]1(C)O[C@H]1[C@H](C)[C@@H]1C[C@@](O)(NC(=O)O1)[C@H](OC)/C=C/C=C(\C)C2 [Compound 6f]
times less toxic than L counterpart [7]: ≥ 20 times | IC50 [7, 13]: 2 nM | IC50 [8, 10]: 8 nM

COc1cc2cc(c1Cl)N(C)C(=O)C[C@H](OC(=O)[C@H](C)N(C)C(=O)CCS)[C@]1(C)O[C@H]1[C@H](C)[C@@H]1C[C@@](O)(NC(=O)O1)[C@H](OC)/C=C/C=C(\C)C2 [Compound 7b]
IC50 [6, 12]: < 0.01 nM | IC50 [7, 13]: 0.6 nM | IC50 [8, 10]: 10 nM
